Source: patent US20230348493A1, “COMPOUND FOR ADJUSTING ACTIVITY OF NMDA RECEPTOR, AND PHARMACEUTICAL COMPOSITION AND USE THEREOF” (BEIJING GREATWAY PHARMACEUTICAL TECHNOLOGY CO., LTD., priority 2020, published 2023)

Target: T1, NMDA receptor (Rattus norvegicus, UniProt P35439)
T1 construct: After the rats were decapitated, the prefrontal cortex and hippocampus were rapidly separated on ice; from tissue; host or cells: SD male rat prefrontal cortex and hippocampus, crude synaptosomes
Test: NMDA receptor agonistic properties in rat crude synaptosomal proteins (maximum [3H]-MK-801 binding vs 1 mM glycine)
Type: biochemical
Conditions: maximum [3H]-MK-801 binding % relative to 1 mM glycine; 50 μM glutamic acid
Experimental: (§1) After the rats were decapitated, the prefrontal cortex and hippocampus were rapidly separated on ice and weighed, 10 volumes of 50 mM Tris-HCl buffer (50 mM Tris-HCl, 5 mM MgCl2·6H2O, 1 mM EDTA, 0.5% (W/V) BSA, 1 mM PMSF, 0.32 M sucrose, pH 7.4) was added, and the mixture was homogenized for five times at 1500 revolutions/min with 30 s each time. A homogenate was centrifuged for 10 min at 1000×g, and a supernatant was taken and centrifuged for 10 min at 40,000×g, the precipitates were collected, re-suspended with volumes of Tris-HCl buffer, incubated at 37° C. for 10 min, and centrifuged for 10 min at 40,000×g, finally the precipitates were re-suspended with the above buffer, aliquoted and stored at −80° C. for later use.
(3) Detection of Influence of Tested Medicines on NMDA Receptor Agonistic Properties in Rat Crude Synaptosomal Proteins
100 μg of rat crude synaptosomal proteins was added to all tubes respectively. 50 μl of 5,7-dichlorokynurenic acid was added to a non-specific binding tube to achieve a final concentration of 10 μM. All tubes were preloaded with 50 μM of glutamic acid, and the materials were reacted for 15 min in advance. 20 μL of control drug at corresponding concentration was added to the test tube, and then reacted for 15 min. 1 mM glycine was added to the maximum reaction tube. A volume of 30 μl of labeled ligand [^3H]-MK-801 was successively added to all tubes to achieve a final concentration of 10 nM, and reacted for 15 min. All reaction tubes were supplemented to a volume of 500 μl with 50 mM Tris-HCl buffer (50 mM Tris-HCl, 5 mM MgCl2·6H2O, 1 mM EDTA, 0.5% (WN) BSA, 0.1% NaN3, pH 7.4). A reaction was carried out at 37° C. for 15 min. A type-49 glass fiber filter membrane was prepared and a sample was applied at the same time. The filter membrane was placed in a multi-head cell collector, and the reaction system was subjected to suction filtration under negative pressure and washed with an ice-cold 50 mM Tris-HCl buffer, 10 ml each time, for a total of 5 times. After suction drying, 1 ml of scintillation liquid was added to the filter membrane, the filter membrane was placed on the shaker for shaking for 1.5 h and then placed in the liquid scintillation counter on the next day to determine the radioactive intensity.
In an agonistic experiment, maximum [^3H]-MK-801 binding %=((tested compounds cpm−5,7 dichlorokynurenic acid cpm)/(1 mM glycine cpm−5,7 dichlorokynurenic acid cpm))×100%.

SMILES | Maximum agonistic efficacy (%)
C[C@@H](O)[C@H](N)C(=O)N1CCCC2(C1)SCCN2C(=O)[C@@H](N)[C@@H](C)O.Cl (stereo partly drawn) [A-367] | 39
CC(=O)N1CCC2(C1)N[C@H](C(=O)N[C@H](C(N)=O)[C@@H](C)O)CS2.Cl (stereo partly drawn) [A-384] | 39
Cl.N[C@@H](CO)C(=O)N1CC2(C1)N[C@H](C(=O)N1CCNCC1)CS2 [A-470] | 33
CC(C)C(=O)N1CC2(C1)N[C@H](C(N)=O)CS2 [A-256] | 28
CC(=O)N1CCC2(CC1)SCCN2C(C)=O [A-079] | 41
CC(=O)N1CCSC12CCCN(C(=O)[C@@H](N)[C@@H](C)O)C2.Cl (stereo partly drawn) [A-090] | 36
CC(C)(C)OC(=O)N1CC2(C1)NCCS2 [A-002] | 45
CC(C)[C@H](N)C(=O)N1CCC2(CC1)NCCS2.Cl [A-036] | 28
C[C@@H](O)[C@H](N)C(=O)N1CCC2(C1)N[C@H](C(=O)N1CCN(C)CC1)CS2.Cl (stereo partly drawn) [A-429] | 57
CN1CCN(C(=O)[C@@H]2CSC3(CCCN(C(=O)[C@@H](N)CO)C3)N2)CC1.Cl (stereo partly drawn) [A-463] | 59
C[C@@H](O)[C@H](N)C(=O)N1CCCC2(C1)N[C@H](C(N)=O)CS2.Cl (stereo partly drawn) [A-282] | 35
C[C@@H](O)[C@H](N)C(=O)N1CCC2(C1)N[C@H](C(N)=O)CS2.Cl (stereo partly drawn) [A-266] | 45
C[C@@H](O)[C@H](N)C(=O)N1CCC2(C1)SCCN2C(=O)[C@@H](N)[C@@H](C)O.Cl (stereo partly drawn) [A-353] | 53
Cl.N#C[C@@H]1CSC2(CN(C(=O)[C@@H](N)CO)C2)N1 [A-303] | 35
CC(=O)N1CCSC12CCN(C(=O)[C@@H](N)[C@@H](C)O)C2.Cl (stereo partly drawn) [A-074] | 38
C[C@@H](O)[C@H](N)C(=O)N1CCCC2(C1)NCCS2.Cl (stereo partly drawn) [A-048] | 38
C[C@@H](O)[C@H](N)C(=O)N1CCC2(C1)SCCN2C.Cl (stereo partly drawn) [A-234] | 75
CC(C)CN1CCSC12CN(C(=O)[C@@H](N)[C@@H](C)O)C2.Cl [A-162] | 38
CC(=O)N1CC2(C1)SCCN2C(=O)[C@@H](N)CC(N)=O.Cl [A-342] | 32
CC(C)(C)OC(=O)N1CCC2(C1)NCCS2 (stereo not drawn) [A-016] | 56
CC(C)C(=O)N1CCC2(CC1)N[C@H](C(N)=O)CS2 [A-272] | 19
C[C@@H](O)[C@H](NC(=O)[C@@H]1CSC2(CNC2)N1)C(N)=O.Cl [A-370] | 46
Cl.N[C@@H](CO)C(=O)N1CC2(C1)SCCN2Cc1ccccc1 [A-195] | 46
CC(C)C(=O)N1CCSC12CCCN(C(=O)[C@@H](N)[C@@H](C)O)C2.Cl (stereo partly drawn) [A-122] | 38

Target: T1, NMDA receptor
Test: Inhibition of [3H]-MK-801 binding to rat crude synaptosomes (receptor ligand binding assay)
Conditions: not given
Experimental: The affinity of the tested compounds on NMDA receptor was researched by receptor ligand binding assays.
Ten SD male rats of SPF grade were ordered and acclimated for 7 days for future use.
as §1
(2) Detection of Inhibitory Function of Tested Medicines on Binding of Crude Synaptosomes in Rats to [^3H]-MK-801
50 μg of rat crude synaptosomal proteins was added to all tubes respectively. A volume of 50 μl of MK-801 (dizocilpine) was added to a non-specific binding tube to achieve a final concentration of 100 μM, and the materials were reacted for 15 min in advance. 20 μL of control drug at corresponding concentration was added to the test tube for reaction for 15 min. A volume of 30 μl of labeled ligand [^3H]-MK-801 was successively added to all tubes to achieve a final concentration of 10 nM. All reaction tubes were supplemented to a volume of 200 μl with 50 mM Tris-HCl buffer (50 mM Tris-HCl, 5 mM MgCl2·6H2O, 1 mM EDTA, 0.5% (WN) BSA, 0.1% NaN3, pH 7.4). A reaction was carried out at 37° C. for 10 min. A type-49 glass fiber filter membrane was prepared and a sample was applied at the same time. The filter membrane was placed in a multi-head cell collector, and a reaction system was subjected to suction filtration under negative pressure and washed with an ice-cold 50 mM Tris-HCl buffer, 10 ml each time, for a total of 5 times. After suction drying, 1 ml of scintillation liquid was added to the filter membrane, the filter membrane was placed on a shaker for shaking for 1.5 h and then placed in a liquid scintillation counter on the next day to determine the radioactive intensity.
GraphPad5.0 software was used to analyze the data, and the percentage of competitive inhibition was calculated through nonlinear fitting, wherein:
Percentage of competitive inhibition %=((total binding tube cpm−compound cpm)/(total binding tube cpm−non-specific binding tube cpm))×100%;
Specific binding amount=total binding amount−non-specific binding amount, wherein each binding site was determined by double compound tubes.

SMILES | IC50 [nM]
C[C@@H](O)[C@H](NC(=O)[C@@H]1CSC2(CNC2)N1)C(N)=O.Cl [A-370] | 0.36

Same assay, conditions: affinity on NMDA; [3H]-MK-801 10 nM, rat prefrontal cortex and hippocampus crude synaptosomes; read-out: IC50

SMILES | IC50 [nM]
C[C@@H](O)[C@H](N)C(=O)N1CCCC2(C1)SCCN2C(=O)[C@@H](N)[C@@H](C)O.Cl (stereo partly drawn) [A-367] | 0.29
CC(=O)N1CCC2(C1)N[C@H](C(=O)N[C@H](C(N)=O)[C@@H](C)O)CS2.Cl (stereo partly drawn) [A-384] | 0.42
Cl.N[C@@H](CO)C(=O)N1CC2(C1)N[C@H](C(=O)N1CCNCC1)CS2 [A-470] | 0.35
CC(C)C(=O)N1CC2(C1)N[C@H](C(N)=O)CS2 [A-256] | 0.89
CC(=O)N1CCC2(CC1)SCCN2C(C)=O [A-079] | 1.25
CC(=O)N1CCSC12CCCN(C(=O)[C@@H](N)[C@@H](C)O)C2.Cl (stereo partly drawn) [A-090] | 0.45
CC(C)(C)OC(=O)N1CC2(C1)NCCS2 [A-002] | 0.33
CC(C)[C@H](N)C(=O)N1CCC2(CC1)NCCS2.Cl [A-036] | 0.89
C[C@@H](O)[C@H](N)C(=O)N1CCC2(C1)N[C@H](C(=O)N1CCN(C)CC1)CS2.Cl (stereo partly drawn) [A-429] | 0.66
CN1CCN(C(=O)[C@@H]2CSC3(CCCN(C(=O)[C@@H](N)CO)C3)N2)CC1.Cl (stereo partly drawn) [A-463] | 0.52
C[C@@H](O)[C@H](N)C(=O)N1CCCC2(C1)N[C@H](C(N)=O)CS2.Cl (stereo partly drawn) [A-282] | 0.32
C[C@@H](O)[C@H](N)C(=O)N1CCC2(C1)N[C@H](C(N)=O)CS2.Cl (stereo partly drawn) [A-266] | 3.2
C[C@@H](O)[C@H](N)C(=O)N1CCC2(C1)SCCN2C(=O)[C@@H](N)[C@@H](C)O.Cl (stereo partly drawn) [A-353] | 0.48
Cl.N#C[C@@H]1CSC2(CN(C(=O)[C@@H](N)CO)C2)N1 [A-303] | 0.24
CC(=O)N1CCSC12CCN(C(=O)[C@@H](N)[C@@H](C)O)C2.Cl (stereo partly drawn) [A-074] | 0.89
C[C@@H](O)[C@H](N)C(=O)N1CCCC2(C1)NCCS2.Cl (stereo partly drawn) [A-048] | 0.55
C[C@@H](O)[C@H](N)C(=O)N1CCC2(C1)SCCN2C.Cl (stereo partly drawn) [A-234] | 1.58
CC(C)CN1CCSC12CN(C(=O)[C@@H](N)[C@@H](C)O)C2.Cl [A-162] | 0.45
CC(=O)N1CC2(C1)SCCN2C(=O)[C@@H](N)CC(N)=O.Cl [A-342] | 0.56
CC(C)(C)OC(=O)N1CCC2(C1)NCCS2 (stereo not drawn) [A-016] | 0.35
CC(C)C(=O)N1CCC2(CC1)N[C@H](C(N)=O)CS2 [A-272] | 0.54
Cl.N[C@@H](CO)C(=O)N1CC2(C1)SCCN2Cc1ccccc1 [A-195] | 0.43
CC(C)C(=O)N1CCSC12CCCN(C(=O)[C@@H](N)[C@@H](C)O)C2.Cl (stereo partly drawn) [A-122] | 1.65
